Several values for one entry are separate records, joined by “and”; a condition that tells them apart may be missing. Equal entries are not always repeated.
Tests used:
[1] = target: T1, HiBiT-SOCS2 fusion in HeLa cells (Homo sapiens, UniProt O14508); experiment: Split-NanoLuc CETSA, live-cell mode; format: cell-based; set-up: Produrg CETSA screening, raw signal: reference not given here; settings: for ΔT / ΔT, individual replicates n1-n3: Prodrug screen CETSA; for ΔT: live HeLa cells, 50 μM, 20 h, Mean n = 3; for ΔT, individual replicates n1-n3: single replicates; for Produrg CETSA screening, raw signal: 50uM 20hrs
T1 construct: encoding SOCS2 (32–198) in pBiT3.1-N expression vector; expressed in transfected cells; host or cells: HeLa
T1 sequence (O14508 32-198): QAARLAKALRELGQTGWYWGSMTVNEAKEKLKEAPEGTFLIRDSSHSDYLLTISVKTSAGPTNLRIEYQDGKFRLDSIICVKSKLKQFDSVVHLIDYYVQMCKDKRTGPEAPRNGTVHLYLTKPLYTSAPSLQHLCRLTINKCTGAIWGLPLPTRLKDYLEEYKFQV
T1 sequence (Q15370 whole entry, further chain, the tested form may be a part): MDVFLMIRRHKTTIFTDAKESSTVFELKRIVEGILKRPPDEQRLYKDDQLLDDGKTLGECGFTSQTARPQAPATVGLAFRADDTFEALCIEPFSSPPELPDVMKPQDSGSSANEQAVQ
T1 sequence (Q15369 whole entry, further chain, the tested form may be a part): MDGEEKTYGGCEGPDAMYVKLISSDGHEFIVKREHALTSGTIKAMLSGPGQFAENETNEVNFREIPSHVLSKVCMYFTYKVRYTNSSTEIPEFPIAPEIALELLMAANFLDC
Procedure: One of the challenges with small-molecule binders displaying on-target activity with recombinant proteins, is to translate their utility to a cellular context. […] One of the advantages of CETSA is that target engagement can be monitored without the need for the development of a cell-permeable tracer molecule.
We utilized CETSA in a live-cell mode to evaluate the efficacy and rank the different prodrugs. We treated live HeLa cells with 50 μM compound (prodrugs) for 20 h and monitored Tagg shift as a proxy for the combo of prodrug permeability and unmasking (Fig. 4d). […] The observation could be because the POM group unmasking requires only esterase unlike the reliance of compounds 21–23 on esterase and phosphoramidase for unmasking an aryloxy phosphoramidate group.
N-terminal HiBiT-SOCS2 fusion was generated by encoding SOCS2 (32–198) in pBiT3.1-N expression vector (Promega). The transfection and target engagement assay were performed by modifying a NanoLuc target engagement protocol (Promega) with some small modifications. Briefly, HiBiT-SOCS2 fusion construct was transfected into HeLa cells using FuGENE HD (Promega) according to the manufacturer’s protocol. HiBiT-SOCS2 fusion construct was diluted into Transfection Carrier DNA (Promega) at a mass ratio of 1:100 or 1:10 for permeabilised and live-cell CETSA respectively. FuGENE HD was added at a ratio of 1:3 (μg DNA: μL FuGENE HD). 1 part (vol) of FuGENE HD complexes thus formed were combined with 20 parts (vol) of HeLa cells suspended at a density of 2 × 10^5 cells/mL, followed by incubation in a humidified, 37 °C + 5% CO2 incubator. After 20 h of incubation HeLa cells were detached and resuspended at a density of 2.5 × 10^5 cells/mL in Opti-MEM media without serum or phenol red but supplemented with protease inhibitor cocktail (Roche). Compounds stocks were added to cell suspension to maintain a final DMSO concentration of 1%. For the permeabilised assay format, 96-well PCR plates (Thermo) were pre-treated with digitonin to have a final well concentration of 50 μg/ml. 50 μl Opti-MEM cell suspension was then aliquoted to each well of the 96-well plate. The plates are then covered with microporous tape sheet (Qiagen) prior to incubation in a humidified, 37 °C + 5% CO2 incubator. Post-incubation we heat the PCR plates in 16-point temperature (split across two runs) curve spanning degrees 40-72 °C temperature span (CFX96 Touch Real-Time PCR Detection System, BioRad). The thermal cycler block was allowed to rise to the designated temperatures prior to placement of the PCR plates into the heating block and heat treatment for 3 min. After incubating the plates at room temperature for over 3 min, 50 μl of the Nano-Glo HiBiT Lytic mix (Promega) was added to each well. Samples were mixed by pipetting and placing the plate on an orbital shaker (600 rpm) for 5 min. 20 μl of the samples (in triplicates) were transferred to a AlphaPlate-384 plate (Perkin Elmer). Luminescence was recorded with GloMax Discover Microplate Reader (Promega). To generate apparent Tagg curves, the data is first converted to percent stabilized by relating the observed luminescence to the luminescence of the lowest temperature (40 °C) for that given sample. Data are then fitted to obtain apparent Tagg values using the Boltzmann Sigmoid equation using Graphpad Prism 9.

[2] = target: T2, SBC2 (Homo sapiens, UniProt O14508); experiment: Covalent fluorescence polarization (FP) probe displacement assay; format: binding; settings: SBC2 titration with 10 nM probe; read-out: KD of fluorescent probe measured with FP
T2 construct: SOCS2 (amino acids 32–198); His6 (N, cleaved yes); made in house; host or cells: E. coli BL21(DE3)
T2 sequence (O14508 32-198): as the sequence (O14508 32-198) above
T2 sequence (Q15370 1-104 partner limits assumed): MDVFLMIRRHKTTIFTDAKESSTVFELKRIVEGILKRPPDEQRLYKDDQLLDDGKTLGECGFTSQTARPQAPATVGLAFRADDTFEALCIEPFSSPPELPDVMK
T2 sequence (Q15369 17-112 partner limits assumed): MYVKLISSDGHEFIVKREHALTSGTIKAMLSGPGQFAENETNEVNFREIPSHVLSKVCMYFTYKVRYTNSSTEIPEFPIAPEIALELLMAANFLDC
Excerpt: With the specific covalent modification of Cys111 established, we decided to fully characterize MN551 as a covalent SOCS2 inhibitor. […] (Fig. 2g, h, Supplementary Fig. 9). Due to the covalent nature of the competing inhibitor, a time-dependent reduction in the fraction of protein-bound probe is observed. […] This value illustrates reasonable specificity for a covalent inhibitor, with nonetheless scope for future optimization. In addition to characterizing the kinetic covalency parameters, we have also assessed the stability of the MN551 by monitoring its reactivity (half-life >70 min) with reduced glutathione (GSH) (Supplementary Fig. 10)[35].
To monitor the SBC2-ligand binding kinetics we designed a fluorescein-labeled small-molecule probe - compound 26. The fluorescence polarization (anisotropy) of a threefold serial dilution of 50 µM SBC2 in 10 nM of the probe in 100 mM HEPES pH 7.5, 50 mM NaCl, 0.5 mM TCEP, 2% DMSO was measured to determine the KL (Supplementary Fig. 9A) (BMG Labtech PHERAstar – firmware v1.33). Protein titration and the curves were fitted using GraphPad Prism 9, using one-site fitting models to determine the probe binding constant, KL. Samples were run in triplicate in 384 well plates, using a total volume per well of 16 μL. The bound fraction of the probe is measure using the equation:1 Fb=Af−A/Af−Ab Where,
A time-dependent reduction in probe anisotropy were measured for a 2-fold serial dilution of […] compound MN551 in 10 nM probe +300 μM SBC2. To determine the initial reversible binding affinity, the initial bound fraction of the probe at time = 0, Fbo (the y-intercept in Fb v/s Time plot, Supplementary Fig. 9B) was plotted against MN551 concentration, and the obtained IC50 is then converted to Ki (Supplementary Fig. 9C)[17]. The slope from Fb versus time graph when divided by Fbo gives rate of covalency, kobs. A plot of kobs v/s MN551 concentration using Michaelis–Menten model of GraphPad Prism 9, provides the parameters kinact (maximum potential rate of inactivation) and KI (concentration of MN551 at which kobs = kinact/2) (Supplementary Fig. 9D, E).
The observed first-order rate constant, kobs is related to KI and kinact by the equation:2 kobs=kinactI/KI+I
At [I]«[KI] the above equation is converted to3 […]
The slope from the plot of kobs against concentration of MN551 gives us the covalent efficiency parameter kinact/KI (Supp Fig. 9F)[30],[33].

In the case of `CC(C)OC(=O)[C@H](C)NP(=O)(Oc1ccc(C[C@H](NC(=O)Cc2ccc(F)cc2)C(=O)NCc2cccc(NC(=O)CCl)c2)cc1)Oc1cccc2ccccc12` (stereo partly drawn) [Compound 22], the ΔT [1] is reported as 2.37 oC and the “ΔT, individual replicates n1-n3” value [1] is reported as 2.11 oC and 3.40 oC and 1.59 oC.

`COC(=O)[C@H](C)NP(=O)(Oc1ccc(C[C@H](NC(=O)Cc2ccc(F)cc2)C(=O)NCc2cccc(NC(=O)CCl)c2)cc1)Oc1cccc2ccccc12` (stereo partly drawn) [Compound 21] was tested, and the “Produrg CETSA screening, raw signal” value ([1]; n=1, temperature point 4 of 16, temperature not given) was 91803 and 91466 and 172287, the “Produrg CETSA screening, raw signal” value ([1]; n=1, temperature point 5 of 16, temperature not given) was 75745 and 107243 and 102225 and the “Produrg CETSA screening, raw signal” value ([1]; n=1, temperature point 6 of 16, temperature not given) was 90752 and 132144 and 123125. The “Produrg CETSA screening, raw signal” value ([1]; n=1, temperature point 7 of 16, temperature not given) was 129001 and 137550 and 230259, the “Produrg CETSA screening, raw signal” value ([1]; n=1, temperature point 8 of 16, temperature not given) was 138976 and 169925 and 177765 and the “Produrg CETSA screening, raw signal” value ([1]; n=1, temperature point 9 of 16, temperature not given) was 198178 and 192764 and 223087. The “Produrg CETSA screening, raw signal” value ([1]; n=1, temperature point 10 of 16, temperature not given) was 187698 and 251675 and 298741, the “Produrg CETSA screening, raw signal” value ([1]; n=1, temperature point 11 of 16, temperature not given) was 267213 and 290800 and 310548 and the “Produrg CETSA screening, raw signal” value ([1]; n=1, temperature point 12 of 16, temperature not given) was 360938 and 373247 and 422856. The “Produrg CETSA screening, raw signal” value ([1]; n=1, temperature point 13 of 16, temperature not given) was 434129 and 461596 and 480477, the “Produrg CETSA screening, raw signal” value ([1]; n=1, temperature point 14 of 16, temperature not given) was 437890 and 471533 and 565224 and the “Produrg CETSA screening, raw signal” value ([1]; n=1, temperature point 15 of 16, temperature not given) was 465739 and 467737 and 561619. For the same compound, the “Produrg CETSA screening, raw signal” value ([1]; n=1, temperature point 16 of 16, temperature not given) was 441792 and 461249 and 531619, the “Produrg CETSA screening, raw signal” value ([1]; n=2, temperature point 1 of 16, temperature not given) was 100426 and 115227 and 145975 and the “Produrg CETSA screening, raw signal” value ([1]; n=2, temperature point 2 of 16, temperature not given) was 100401 and 85507 and 140649. For the same compound, the “Produrg CETSA screening, raw signal” value ([1]; n=2, temperature point 3 of 16, temperature not given) was 123706 and 103110 and 202648, the “Produrg CETSA screening, raw signal” value ([1]; n=2, temperature point 4 of 16, temperature not given) was 103160 and 69960 and 120366 and the “Produrg CETSA screening, raw signal” value ([1]; n=2, temperature point 5 of 16, temperature not given) was 75996 and 86411 and 132074. The “Produrg CETSA screening, raw signal” value ([1]; n=2, temperature point 6 of 16, temperature not given) was 123683 and 120963 and 144901, the “Produrg CETSA screening, raw signal” value ([1]; n=2, temperature point 7 of 16, temperature not given) was 143611 and 177701 and 227556 and the “Produrg CETSA screening, raw signal” value ([1]; n=2, temperature point 8 of 16, temperature not given) was 172997 and 193471 and 214613. The “Produrg CETSA screening, raw signal” value ([1]; n=2, temperature point 9 of 16, temperature not given) was 198669 and 236779 and 246686, the “Produrg CETSA screening, raw signal” value ([1]; n=2, temperature point 10 of 16, temperature not given) was 209139 and 261273 and 295556 and the “Produrg CETSA screening, raw signal” value ([1]; n=2, temperature point 11 of 16, temperature not given) was 246514 and 287579 and 323688. The “Produrg CETSA screening, raw signal” value ([1]; n=2, temperature point 12 of 16, temperature not given) was 393463 and 428191 and 449673, the “Produrg CETSA screening, raw signal” value ([1]; n=2, temperature point 13 of 16, temperature not given) was 441856 and 476194 and 509704 and the “Produrg CETSA screening, raw signal” value ([1]; n=2, temperature point 14 of 16, temperature not given) was 497788 and 532165 and 547547. For the same compound, the “Produrg CETSA screening, raw signal” value ([1]; n=2, temperature point 15 of 16, temperature not given) was 523691 and 513819 and 551344, the “Produrg CETSA screening, raw signal” value ([1]; n=2, temperature point 16 of 16, temperature not given) was 478273 and 472552 and 530261 and the “Produrg CETSA screening, raw signal” value ([1]; n=3, Temp, 0C 62.3) was 20167. The “Produrg CETSA screening, raw signal” value ([1]; n=3, Temp, 0C 66.1) was 12666 and 19260 and 24872, the “Produrg CETSA screening, raw signal” value ([1]; n=3, Temp, 0C 69.3) was 18005 and 19840 and 24313 and the “Produrg CETSA screening, raw signal” value ([1]; n=3, Temp, 0C 71.1) was 19926 and 19187 and 22421. For the same compound, the “Produrg CETSA screening, raw signal” value ([1]; n=3, Temp, 0C 72) was 14765 and 18884 and 20941, the ΔT [1] was 0.60 oC and the “ΔT, individual replicates n1-n3” value [1] was 1.03 oC and -0.02 oC and 0.80 oC.

With `Cc1cc(CNC(=O)[C@H](Cc2ccc(OP(=O)(O)O)cc2)NC(=O)Cc2ccc(F)cc2OCCNC(=S)Nc2ccc3c(c2)C(=O)OC32c3ccc(O)cc3Oc3cc(O)ccc32)ccc1Cl` [Compound 26] the Kd [2] was 77.6 nM.

Reference: paper PMC10564737, “Structure-based design of a phosphotyrosine-masked covalent ligand targeting the E3 ligase SOCS2” (Nature Communications, 2023)
